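Each compound was tested at five concentrations against cells in 96-well plates for 48 hours. TGI marks complete inhibition of growth.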
Tests used:
Experiment in all cases: NCI-60 cell line screen, 48 h
786-0 renal = system: 786-0 renal
A498 renal = system: A498 renal
A549 NSCLC = system: A549 NSCLC
ACHN renal = system: ACHN renal
CAKI-1 renal = system: CAKI-1 renal
CCRF-CEM leukemia = system: CCRF-CEM leukemia
COLO 205 colon = system: COLO 205 colon
DLD-1 colon = system: DLD-1 colon
DMS 114 small cell lung = system: DMS 114 small cell lung
DU-145 prostate = system: DU-145 prostate
EKVX NSCLC = system: EKVX NSCLC
HCC-2998 colon = system: HCC-2998 colon
HCT-116 colon = system: HCT-116 colon
HCT-15 colon = system: HCT-15 colon
HL-60(TB) leukemia = system: HL-60(TB) leukemia
HOP-18 NSCLC = system: HOP-18 NSCLC
HOP-62 NSCLC = system: HOP-62 NSCLC
HOP-92 NSCLC = system: HOP-92 NSCLC
HT29 colon = system: HT29 colon
IGROV1 ovarian = system: IGROV1 ovarian
K-562 leukemia = system: K-562 leukemia
KM12 colon = system: KM12 colon
KM20L2 colon = system: KM20L2 colon
LOX IMVI melanoma = system: LOX IMVI melanoma
LXFL 529 NSCLC = system: LXFL 529 NSCLC
M14 melanoma = system: M14 melanoma
M19-MEL melanoma = system: M19-MEL melanoma
MALME-3M melanoma = system: MALME-3M melanoma
MOLT-4 leukemia = system: MOLT-4 leukemia
NCI-H226 lung = system: NCI-H226 lung
NCI-H23 lung = system: NCI-H23 lung
NCI-H460 lung = system: NCI-H460 lung
NCI-H522 lung = system: NCI-H522 lung
OVCAR-3 ovarian = system: OVCAR-3 ovarian
OVCAR-4 ovarian = system: OVCAR-4 ovarian
OVCAR-5 ovarian = system: OVCAR-5 ovarian
OVCAR-8 ovarian = system: OVCAR-8 ovarian
RPMI-8226 leukemia = system: RPMI-8226 leukemia
RXF 393 renal = system: RXF 393 renal
SF-268 CNS = system: SF-268 CNS
SF-295 CNS = system: SF-295 CNS
SF-539 CNS = system: SF-539 CNS
SK-MEL-2 melanoma = system: SK-MEL-2 melanoma
SK-MEL-28 melanoma = system: SK-MEL-28 melanoma
SK-MEL-5 melanoma = system: SK-MEL-5 melanoma
SK-OV-3 ovarian = system: SK-OV-3 ovarian
SN12C renal = system: SN12C renal
SNB-19 CNS = system: SNB-19 CNS
SNB-75 CNS = system: SNB-75 CNS
SNB-78 CNS = system: SNB-78 CNS
SR leukemia = system: SR leukemia
SW-620 colon = system: SW-620 colon
TK-10 renal = system: TK-10 renal
U251 CNS = system: U251 CNS
UACC-257 melanoma = system: UACC-257 melanoma
UACC-62 melanoma = system: UACC-62 melanoma
UO-31 renal = system: UO-31 renal
XF 498 CNS = system: XF 498 CNS

Measured: TGI

CCOP(=O)(OCC)/C(C#N)=C\c1ccc(OC(C)=O)cc1
> 100 µM: all assays above

Source: PubChem BioAssay (NCI)
